In patent publication US10399940B2, “Substituted pyrrolidines and methods of use” (AbbVie S.à.r.l., priority 2016, dated 2019):
Where two headings read alike, the source gives them in different places.

Target: T1, F508delCFTR (Homo sapiens, UniProt P13569, DEL508-508)
T1 construct: expressed in transfected cells; host or cells: CFBE41o- (human lung derived epithelial cell line), doxycycline-inducible expression
Experiment: Cell Surface Expression-Horse Radish Peroxidase (CSE-HRP) assay
Assay type: cell-based
Conditions: CFBE41o-F508delCFTR-HRP cells; for Maximum % activity (with co-corrector): with co-corrector (2 μM); for Maximum % activity (with co-corrector) / Maximum % activity (without co-corrector): normalized to on-plate positive control, highest concentration 20 μM
Method in brief: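 CFBE41o- cells expressed F508delCFTR with HRP in the fourth exofacial loop, induced by 0.5 μg/mL doxycycline for 72 h at 37 °C. Compounds alone or with 2 μM co-corrector ran 18–24 h at 33 °C, 8-point 3-fold from 20 μM. Washed-cell luminol luminescence was normalized to DMSO and positive control, fitted sigmoidally for EC50 (three plates).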

[1] = test compound without co-corrector, 18-24 hours at 33° C., read-out: EC50 (without co-corrector)
[2] = with co-corrector (2 μM of 3-[(2R,4R)-4-({[1-(2,2-difluoro-1,3-benzodioxol-5-yl)cyclopropyl]carbonyl}amino)-7-methoxy-3,4-dihydro-2H-chromen-2-yl]benzoic acid), read-out: EC50 (with co-corrector)

T1 sequence (P13569 with tags, fused parts or gaps DEL508-508): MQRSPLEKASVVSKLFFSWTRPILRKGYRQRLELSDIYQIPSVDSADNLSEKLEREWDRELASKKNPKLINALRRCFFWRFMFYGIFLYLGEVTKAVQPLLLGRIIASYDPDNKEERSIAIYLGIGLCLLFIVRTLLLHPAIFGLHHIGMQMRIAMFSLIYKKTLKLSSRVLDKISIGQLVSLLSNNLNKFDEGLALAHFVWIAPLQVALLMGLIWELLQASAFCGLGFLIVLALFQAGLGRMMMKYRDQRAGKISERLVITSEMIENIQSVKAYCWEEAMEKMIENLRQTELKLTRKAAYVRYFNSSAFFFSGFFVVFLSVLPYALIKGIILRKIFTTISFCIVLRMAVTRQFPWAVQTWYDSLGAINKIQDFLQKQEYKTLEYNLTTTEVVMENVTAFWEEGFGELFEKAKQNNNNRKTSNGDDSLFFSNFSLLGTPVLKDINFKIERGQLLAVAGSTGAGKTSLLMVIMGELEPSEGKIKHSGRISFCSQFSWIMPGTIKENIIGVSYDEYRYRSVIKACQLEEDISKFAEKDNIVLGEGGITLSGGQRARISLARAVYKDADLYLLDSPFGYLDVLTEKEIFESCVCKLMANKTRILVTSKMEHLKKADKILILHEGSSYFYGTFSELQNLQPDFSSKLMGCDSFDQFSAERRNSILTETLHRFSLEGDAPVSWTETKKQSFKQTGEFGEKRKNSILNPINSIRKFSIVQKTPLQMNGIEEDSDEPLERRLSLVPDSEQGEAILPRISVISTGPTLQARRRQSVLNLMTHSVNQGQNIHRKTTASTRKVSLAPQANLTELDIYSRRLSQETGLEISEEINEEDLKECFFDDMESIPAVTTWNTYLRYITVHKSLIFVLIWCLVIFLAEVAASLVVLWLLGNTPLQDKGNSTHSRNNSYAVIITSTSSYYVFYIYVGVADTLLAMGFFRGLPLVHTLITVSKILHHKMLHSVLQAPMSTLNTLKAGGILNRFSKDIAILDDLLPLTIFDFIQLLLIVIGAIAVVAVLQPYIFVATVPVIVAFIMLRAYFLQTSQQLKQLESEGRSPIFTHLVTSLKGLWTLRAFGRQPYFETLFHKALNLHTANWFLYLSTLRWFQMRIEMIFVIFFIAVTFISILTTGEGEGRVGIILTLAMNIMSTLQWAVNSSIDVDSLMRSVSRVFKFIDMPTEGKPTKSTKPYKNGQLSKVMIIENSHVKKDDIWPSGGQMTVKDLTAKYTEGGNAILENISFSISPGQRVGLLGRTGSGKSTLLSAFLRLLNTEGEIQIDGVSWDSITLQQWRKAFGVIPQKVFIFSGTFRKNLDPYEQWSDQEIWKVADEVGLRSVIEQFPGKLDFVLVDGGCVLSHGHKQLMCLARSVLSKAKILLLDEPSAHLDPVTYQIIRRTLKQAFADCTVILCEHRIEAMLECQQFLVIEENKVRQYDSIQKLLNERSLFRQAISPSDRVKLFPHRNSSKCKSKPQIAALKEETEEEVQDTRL

Compound	EC50 [1] [nM]	EC50 [2] [nM]	Maximum % activity (with co-corrector)	Maximum % activity (without co-corrector)
COc1ncc(C(F)(F)F)cc1CO[C@H]1[C@H](C(C)(C)C)[C@@H](C(=O)O)N(C(=O)[C@@H]2CCCCO2)[C@H]1c1cccc(C(C)(C)C)c1 [Example 158, (2S,3R,4S,5S)-3-tert-butyl-5-(3-tert-butylphenyl)-4-{[2-methoxy-5-(trifluoromethyl)pyridin-3-yl]methoxy}-1-[(2S)-oxane-2-carbonyl]pyrrolidine-2-carboxylic acid]	< 1000	< 1000	+++ (≥350)	++ (≥100 and <200)
COc1ncc(C(F)(F)F)cc1CO[C@H]1[C@H](C(C)(C)C)[C@@H](C(=O)O)N(C(=O)[C@@H]2CCCO2)[C@H]1c1ccccc1Br [Example 159, (2S,3R,4S,5S)-5-(2-bromophenyl)-3-tert-butyl-4-{[2-methoxy-5-(trifluoromethyl)pyridin-3-yl]methoxy}-1-[(2S)-oxolane-2-carbonyl]pyrrolidine-2-carboxylic acid]	< 1000	< 1000	+++ (≥350)	+ (<100)
COc1ncc(C(F)(F)F)cc1CO[C@H]1[C@H](C(C)(C)C)[C@@H](C(=O)O)N(C(=O)C2CCC2)[C@H]1c1cccnc1OC(C)C [Example 160, (2S,3R,4S,5S)-3-tert-butyl-1-(cyclobutanecarbonyl)-4-{[2-methoxy-5-(trifluoromethyl)pyridin-3-yl]methoxy}-5-{2-[(propan-2-yl)oxy]pyridin-3-yl}pyrrolidine-2-carboxylic acid]	1000 to 10000	1000 to 10000	++ (≥150 and <350)	+ (<100)
COc1ncc(C2CCC2)cc1CO[C@H]1[C@H](C(C)(C)C)[C@@H](C(=O)O)N(C(=O)C2CCC2)[C@H]1c1cccnc1OC(C)C [Example 161, (2S,3R,4S,5S)-3-tert-butyl-1-(cyclobutanecarbonyl)-4-[(5-cyclobutyl-2-methoxypyridin-3-yl)methoxy]-5-{2-[(propan-2-yl)oxy]pyridin-3-yl}pyrrolidine-2-carboxylic acid]	1000 to 10000	1000 to 10000	+++ (≥350)	+ (<100)
COc1ccc(C(C)(C)C)cc1CO[C@H]1[C@H](C(C)(C)C)[C@@H](C(=O)O)N(C(=O)[C@@H]2CCCO2)[C@H]1c1ccccc1Br [Example 162, (2S,3R,4S,5S)-5-(2-bromophenyl)-3-tert-butyl-4-[(5-tert-butyl-2-methoxyphenyl)methoxy]-1-[(2S)-oxolane-2-carbonyl]pyrrolidine-2-carboxylic acid]	1000 to 10000	< 1000	+++ (≥350)	+++ (≥200)
COc1ncc(C(F)(F)F)cc1CO[C@@H]1[C@H](C(C)(C)C)[C@@H](C(=O)O)N(C(=O)C2CCCC2)[C@H]1c1cccnc1OC(C)C [Example 163, (2S,3R,4R,5S)-3-tert-butyl-1-(cyclopentanecarbonyl)-4-{[2-methoxy-5-(trifluoromethyl)pyridin-3-yl]methoxy}-5-{2-[(propan-2-yl)oxy]pyridin-3-yl}pyrrolidine-2-carboxylic acid]	> 10000	> 10000	+ (<150)	+ (<100)
COc1ncc(C(F)(F)F)cc1CO[C@@H]1[C@H](C(C)(C)C)[C@@H](C(=O)O)N(C(=O)C2CCCCC2)[C@H]1c1cccnc1OC(C)C [Example 164, (2S,3R,4R,5S)-3-tert-butyl-1-(cyclohexanecarbonyl)-4-{[2-methoxy-5-(trifluoromethyl)pyridin-3-yl]methoxy}-5-{2-[(propan-2-yl)oxy]pyridin-3-yl}pyrrolidine-2-carboxylic acid]	> 10000	> 10000	+ (<150)	+ (<100)
COc1ncc(C2CCC2)cc1CO[C@H]1[C@H](C(C)(C)C)[C@@H](C(=O)O)N(C(=O)[C@@H]2CCCO2)[C@H]1c1ccccc1C(F)F [Example 165, (2S,3R,4S,5S)-3-tert-butyl-4-[(5-cyclobutyl-2-methoxypyridin-3-yl)methoxy]-5-[2-(difluoromethyl)phenyl]-1-[(2S)-oxolane-2-carbonyl]pyrrolidine-2-carboxylic acid]	1000 to 10000	1000 to 10000	+++ (≥350)	++ (≥100 and <200)
COc1ncc(C2CCC2)cc1CO[C@@H]1[C@H](C(C)(C)C)[C@@H](C(=O)O)N(C(=O)OC(C)C)[C@H]1c1ccccc1Br [Example 166, (2S,3R,4R,5S)-5-(2-bromophenyl)-3-tert-butyl-4-[(5-cyclobutyl-2-methoxypyridin-3-yl)methoxy]-1-{[(propan-2-yl)oxy]carbonyl}pyrrolidine-2-carboxylic acid]	1000 to 10000	1000 to 10000	+++ (≥350)	+ (<100)
COc1ncc(C(F)(F)F)cc1CO[C@H]1[C@H](C(C)(C)C)[C@@H](C(=O)O)N(C(=O)OC(C)C)[C@H]1c1c(F)cccc1F [Example 167, (2S,3R,4S,5S)-3-tert-butyl-5-(2,6-difluorophenyl)-4-{[2-methoxy-5-(trifluoromethyl)pyridin-3-yl]methoxy}-1-{[(propan-2-yl)oxy]carbonyl}pyrrolidine-2-carboxylic acid]	1000 to 10000	1000 to 10000	++ (≥150 and <350)	+ (<100)
COc1ncc(C2CCC2)cc1CO[C@H]1[C@H](C(C)(C)C)[C@@H](C(=O)O)N(C(=O)OC(C)C)[C@H]1c1ccccc1C1CC1 [Example 168, (2S,3R,4S,5S)-3-tert-butyl-4-[(5-cyclobutyl-2-methoxypyridin-3-yl)methoxy]-5-(2-cyclopropylphenyl)-1-{[(propan-2-yl)oxy]carbonyl}pyrrolidine-2-carboxylic acid]	1000 to 10000	1000 to 10000	+++ (≥350)	++ (≥100 and <200)
COc1ncc(C2CCC2)cc1CO[C@H]1[C@H](C(C)(C)C)[C@@H](C(=O)O)N(C(=O)C2CCCCC2)[C@H]1c1cccnc1OC(C)C [Example 169, (2S,3R,4S,5S)-3-tert-butyl-4-[(5-cyclobutyl-2-methoxypyridin-3-yl)methoxy]-1-(cyclohexanecarbonyl)-5-{2-[(propan-2-yl)oxy]pyridin-3-yl}pyrrolidine-2-carboxylic acid]	1000 to 10000	1000 to 10000	+++ (≥350)	+++ (≥200)
COc1ncc(C2CCC2)cc1CO[C@H]1[C@H](C(C)(C)C)[C@@H](C(=O)O)N(C(=O)[C@@H]2CCCCO2)[C@H]1c1ccccc1C [Example 170, (2S,3R,4S,5S)-3-tert-butyl-4-[(5-cyclobutyl-2-methoxypyridin-3-yl)methoxy]-5-(2-methylphenyl)-1-[(2S)-oxane-2-carbonyl]pyrrolidine-2-carboxylic acid]	1000 to 10000	< 1000	+++ (≥350)	+++ (≥200)
COc1ncc(C2CCC2)cc1CO[C@H]1[C@H](C(C)(C)C)[C@@H](C(=O)O)N(C(=O)[C@@H]2CCCCO2)[C@H]1c1ccccc1C1CC1 [Example 171, (2S,3R,4S,5S)-3-tert-butyl-4-[(5-cyclobutyl-2-methoxypyridin-3-yl)methoxy]-5-(2-cyclopropylphenyl)-1-[(2S)-oxane-2-carbonyl]pyrrolidine-2-carboxylic acid]	1000 to 10000	1000 to 10000	+++ (≥350)	+++ (≥200)
COc1ccc(C(C)(C)C)cc1CO[C@H]1[C@H](C(C)(C)C)[C@@H](C(=O)O)N(C(=O)[C@@H]2CCCO2)[C@H]1c1ccccc1C1CC1 [Example 172, (2S,3R,4S,5S)-3-tert-butyl-4-[(5-tert-butyl-2-methoxyphenyl)methoxy]-5-(2-cyclopropylphenyl)-1-[(2S)-oxolane-2-carbonyl]pyrrolidine-2-carboxylic acid]	1000 to 10000	1000 to 10000	+++ (≥350)	+++ (≥200)
COc1ncc(Br)cc1CO[C@H]1[C@H](C(C)(C)C)[C@@H](C(=O)O)N(C(=O)[C@@H]2CCCO2)[C@H]1c1ccccc1C1CC1 [Example 173, (2S,3R,4S,5S)-4-[(5-bromo-2-methoxypyridin-3-yl)methoxy]-3-tert-butyl-5-(2-cyclopropylphenyl)-1-[(2S)-oxolane-2-carbonyl]pyrrolidine-2-carboxylic acid]	1000 to 10000	1000 to 10000	+++ (≥350)	+++ (≥200)
COc1ccc(C(F)(F)F)cc1CO[C@H]1[C@H](C(C)(C)C)[C@@H](C(=O)O)N(C(=O)[C@@H]2CCCCO2)[C@H]1c1ccccc1C [Example 174, (2S,3R,4S,5S)-3-tert-butyl-4-{[2-methoxy-5-(trifluoromethyl)phenyl]methoxy}-5-(2-methylphenyl)-1-[(2S)-oxane-2-carbonyl]pyrrolidine-2-carboxylic acid]	< 1000	< 1000	+++ (≥350)	+++ (≥200)
